US20220184220A1, “XYLOGLUCAN-CONTAINING PRODRUGS AND METHODS OF MANUFACTURE AND USE THEREOF” (priority 2019, published 2022)
Entries after “also recorded” stand apart in the source; their conditions may differ.

What was measured:
[1] = tested on: IL-1β, IL-6, IL-22, TNF-α; assay: Tissue cytokine detection by ELISA in cecal and colonic homogenates (Example 3); format: in vivo, mice; details: for decreasing pro-inflammatory cytokines (IL-1β and TNF-α) and increasing IL-22 in intestinal tissues: compared with uncaged drugs
Description: Cecal and colonic homogenate for each mouse was prepared using the tissues suspended in an immunoprecipitation buffer at a ratio of 1:5 (wt/vol, adapted from Burgos-Ramos E. et al. 2012. “Adipose tissue promotes a serum cytokine profile related to lower insulin sensitivity after chronic central leptin infusion”. PLoS One Vol 7(10): e46893) with the addition of 1% Protease Inhibitor Cocktail (Sigma Aldrich). Frozen tissue sections were immediately homogenized using a Tissue-Tearor® model 398 homogenizer (Biospec Products) and centrifuged (14 000×g for 30 min at 4° C.). Supernatants were collected and used immediately for cytokine profiling. Cecal and colonic cytokine concentrations were measured for each treatment group by enzyme-linked immunosorbent assay (ELISA). Cytokines included in the analysis were interleukin-1 beta (IL-1β); IL-6; IL-10; IL-22; and tumour necrosis factor alpha (TNF-α). All cytokines were quantified using mouse DuoSet ELISA Development kits according to the manufacturer's protocols (R&D Systems). ELISAs were performed using 96-well high-binding half area microplates (Greiner Bio-One), and the optical density of the reactions were determined at wavelength of 450 nm on a Synergy HT™ multi-detection microplate reader (BioTek Instruments Inc.) with Gen5™ analysis software (BioTek Instruments Inc.).

[2] = tested on: acute self-limiting colitis in mice; assay: Gross visual observations of the murine abdomen (Example 3); format: in vivo; details: necropsy after 3 days of steroid gavage
Description: Under isoflurane anesthesia, mice were terminally bled by cardiac puncture and then humanely euthanized by cervical dislocation. All collected blood was separated into serum that was dedicated for steroid detection and optimization of steroid detection procedures. Following euthanasia, a midline laparotomy was made and gross observations of the abdominal regions were photo-documented. Approximately 1 cm sections of the cecum, and the most proximal and distal portions of the colon were divided for histological examination. Cecal and colonic tissues were flash frozen in liquid nitrogen for future immunological protein quantification. Digesta extracted from the colon was stored at −80° C. for future steroid detection, and fresh feces from the cages were used to enumerate Bacteroides ovatus and Citrobacter rodentium by microbiological techniques on the same day as the necropsy.

[3] = tested on: interleukin-12p70 (IL-12p70); assay: Protein markers of inflammation in colonic tissue (Example 7); format: in vivo; details: infected female mice; compared to uncaged PRED or DEXA
Description: (§1) Approval to conduct this project was obtained from the AAFC LeRDC Animal Care Committee (Animal Use Protocol 1911). […] The methods employed were essentially the same as those described in Example 3, except that the Citrobacter rodentium (CR) was administered to incite acute self-limiting colitis in mice prior to colonization with Bacteroides ovatus (BO). […] FIG. 20 provides a schematic illustrating the study design and timelines.
(§2) As in the study described in Example 3, there were gross histopathological differences in the distal colon tissue obtained from mice in the different treatment groups. Histological scoring of inflammation was performed by a board-certified pathologist blinded to treatment. […] Following CR infection, with no treatment, neutrophil infiltration was evident and the histological score was 10. […] Evidence of enhanced amelioration of protein markers of inflammation were also observed. […] IL-12p70 is a pro-inflammatory cytokine involved in cell-mediated immunity. For example, it is known as a T cell-stimulating factor, which can stimulate the growth and function of T cells. Moreover, it stimulates the production of interferon-gamma (IFN-γ) and tumor necrosis factor-alpha (TNF-α) from T cells and natural killer (NK) cells, and reduces IL-4 mediated suppression of IFN-γ.

[4] = target: Bacteroides ovatus GH5 endo-xyloglucanase (Bacteroides ovatus, UniProt A7LXT7); assay: Hydrolysis of glyco-caged prodrugs by BoGH5A, copper-bicinchoninic acid (BCA) reducing-sugar assay; format: biochemical; details: sodium citrate buffer, pH 6.5
Sequence of Bacteroides ovatus GH5 endo-xyloglucanase (A7LXT7 33-502): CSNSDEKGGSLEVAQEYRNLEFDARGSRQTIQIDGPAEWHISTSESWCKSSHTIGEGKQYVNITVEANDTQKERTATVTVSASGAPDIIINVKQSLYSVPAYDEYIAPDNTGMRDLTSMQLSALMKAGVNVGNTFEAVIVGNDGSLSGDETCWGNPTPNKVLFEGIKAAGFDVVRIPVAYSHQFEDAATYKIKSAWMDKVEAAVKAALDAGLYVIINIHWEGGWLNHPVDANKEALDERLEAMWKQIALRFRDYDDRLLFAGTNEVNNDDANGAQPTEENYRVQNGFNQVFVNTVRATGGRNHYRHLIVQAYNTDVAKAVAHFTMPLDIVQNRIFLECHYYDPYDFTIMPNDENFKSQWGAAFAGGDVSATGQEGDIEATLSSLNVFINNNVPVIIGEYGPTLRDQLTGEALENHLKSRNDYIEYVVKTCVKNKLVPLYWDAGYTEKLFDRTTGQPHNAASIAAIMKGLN
Description: DOI:10.1007/978-1-4939-6899-2 1.

[5] = tested on: acute self-limiting colitis in mice; assay: Histological scoring of inflammation, C. rodentium colitis in mice with normal enteric microbiota (Example 7); format: in vivo; details: for histological score, distal colon: CR+/BO+ mice, prednisolone forms 1 mg/kg, dexamethasone forms 1.5 mg/kg (equivalent), one day following steroid treatment; for efficacy compared with the uncaged drug, histologically: Example 7 conclusions; for colitis in the colon, histopathologically: colitis incited by Citrobacter rodentium, mice colonized by Bacteroides ovatus
Description: as §1, §2

[6] = tested on: acute self-limiting colitis in mice; assay: Histological scoring of inflammation, C. rodentium colitis in germ-free mice colonized with B. ovatus (Example 3); format: in vivo; details: for Crypt Height / Epithelia Hyperplasia / Epithelial Injury / Fibrosis / Globlet cell / Inflamm / Mitotic Act.: gavage 3 days, prednisolone forms 1 mg/kg/day, dexamethasone forms 0.6 mg/kg/day; for Crypt Height / Epithelia Hyperplasia / Epithelial Injury / Fibrosis / Globlet cell / Inflamm / Mitotic Act. / Total Score: n=2; for Total Score: sum of each scoring category; for acute inflammation in the proximal and distal colon, histopathologically / efficacy compared with the uncaged drug: gnotobiotic mice colonized by B. ovatus; for efficacy compared with the uncaged drug: Example 3 conclusions
[7] = cecal tissue homogenates, compared to the free steroids, n=2

## C[C@@H]1C[C@H]2[C@@H]3CCC4=CC(=O)C=C[C@]4(C)[C@@]3(F)[C@@H](O)C[C@]2(C)[C@@]1(O)C(=O)CO[C@@H]1OC(CO)[C@@H](O[C@@H]2OC(CO[C@H]3OC[C@@H](O)C(O)C3O)[C@@H](O[C@@H]3OC(CO[C@H]4OC[C@@H](O)C(O)C4O)[C@@H](O[C@@H]4OC(CO[C@H]5OC[C@@H](O)C(O)C5O)[C@@H](O)C(O)C4O)C(O)C3O)C(O)C2O)C(O)C1O (stereo partly drawn) [XXXG-DEXA, XXXG-β-O-dexamethasone]
[1]; [7]
  IL-1β concentration in cecal tissue: decreased
  TNF-α concentration in cecal tissue: decreased
  decrease of IL-6 concentration in cecal tissue: more effective than XXXG-PRED
[1]
  decreasing pro-inflammatory cytokines (IL-1β and TNF-α) and increasing IL-22 in intestinal tissues: more effective than the uncaged drugs
[2]
  cecal and colonic thickening (gross observation): less cecal and colonic thickening than uncaged dexamethasone
[3]
  quantities of interleukin-12p70 (IL-12p70) protein in colonic tissue: significantly lower
[4]
  hydrolysis of the prodrug (release of the active drug): demonstrated
[5]
  histological score, distal colon: 2
  efficacy compared with the uncaged drug, histologically: greater efficacy than uncaged dexamethasone histologically
  colitis in the colon, histopathologically: ameliorate colitis
[6]; cecal tissue
  Crypt Height: 1
  Epithelia Hyperplasia: 1
  Epithelial Injury: 1
  Fibrosis: 1.5
  Globlet cell: 0.5
  Inflamm: 2
  Mitotic Act.: 1.5
  Total Score: 8.5
[6]; colitis incited by Citrobacter rodentium
  amelioration of colitis in the cecum and proximal colon, caged drugs compared: more effective than XXXG-PRED
[6]; distal colon
  caged drugs compared in the distal colon: equal scores
  Crypt Height: 1.5
  Epithelia Hyperplasia: 1.5
  Epithelial Injury: 1
  Fibrosis: 0
  Globlet cell: 0
  Inflamm: 1
  Mitotic Act.: 1
  Total Score: 6
[6]
  acute inflammation in the proximal and distal colon, histopathologically: ameliorate acute inflammation
  efficacy compared with the uncaged drug: greater efficacy than uncaged dexamethasone
[6]; histologic examination
  injury and inflammation intensities, distal colon: lessened the injury and inflammation intensities
  injury and inflammation intensity, ceca and proximal colon tissues: less injury and inflammation intensity than the other treatments
[6]; proximal colon
  Crypt Height: 2
  Epithelia Hyperplasia: 1.5
  Epithelial Injury: 2
  Fibrosis: 0
  Globlet cell: 0
  Inflamm: 1
  Mitotic Act.: 1.5
  Total Score: 8

## C[C@]12C=CC(=O)C=C1CC[C@@H]1[C@@H]2[C@@H](O)C[C@@]2(C)[C@H]1CC[C@]2(O)C(=O)CO[C@@H]1OC(CO)[C@@H](O[C@@H]2OC(CO[C@H]3OC[C@@H](O)C(O)C3O)[C@@H](O[C@@H]3OC(CO[C@H]4OC[C@@H](O)C(O)C4O)[C@@H](O[C@@H]4OC(CO[C@H]5OC[C@@H](O)C(O)C5O)[C@@H](O)C(O)C4O)C(O)C3O)C(O)C2O)C(O)C1O (stereo partly drawn) [XXXG-PRED, XXXG-β-O-prednisolone]
[1]; [7]
  IL-1β concentration in cecal tissue: decreased
  TNF-α concentration in cecal tissue: decreased
[1]; cecal tissue homogenates, n=2
  IL-22 concentration in cecal tissue: increased
[1]
  decreasing pro-inflammatory cytokines (IL-1β and TNF-α) and increasing IL-22 in intestinal tissues: more effective than the uncaged drugs
[2]
  blood present in ceca (gross observation): more blood present in ceca than dexamethasone treatment; also recorded: more blood in cecal area
[3]
  quantities of interleukin-12p70 (IL-12p70) protein in colonic tissue: significantly lower
[4]
  hydrolysis of the prodrug (release of the active drug): demonstrated
[5]
  histological score, distal colon: 4
  efficacy compared with the uncaged drug, histologically: greater efficacy than uncaged prednisolone histologically
  colitis in the colon, histopathologically: ameliorate colitis
[6]; cecal tissue
  Crypt Height: 2
  Epithelia Hyperplasia: 2
  Epithelial Injury: 1.5
  Fibrosis: 0.5
  Globlet cell: 0
  Inflamm: 2.5
  Mitotic Act.: 1.5
  Total Score: 10
[6]; distal colon
  caged drugs compared in the distal colon: equal scores
  Crypt Height: 1.5
  Epithelia Hyperplasia: 1.5
  Epithelial Injury: 1
  Fibrosis: 0
  Globlet cell: 0.5
  Inflamm: 1
  Mitotic Act.: 1
  Total Score: 6.5
[6]
  acute inflammation in the proximal and distal colon, histopathologically: ameliorate acute inflammation
  efficacy compared with the uncaged drug: greater efficacy than uncaged prednisolone
[6]; histologic examination
  injury and inflammation intensities, distal colon: lessened the injury and inflammation intensities
[6]; proximal colon
  Crypt Height: 2
  Epithelia Hyperplasia: 3
  Epithelial Injury: 2.5
  Fibrosis: 0
  Globlet cell: 0.5
  Inflamm: 2
  Mitotic Act.: 1.5
  Total Score: 11.5

## C[C@@H]1C[C@H]2[C@@H]3CCC4=CC(=O)C=C[C@]4(C)[C@@]3(F)[C@@H](O)C[C@]2(C)[C@@]1(O)C(=O)CO [dexamethasone, reference compound]
[5]
  histological score, distal colon: 17
[6]; cecal tissue
  Crypt Height: 1
  Epithelia Hyperplasia: 1
  Epithelial Injury: 0.5
  Fibrosis: 0
  Globlet cell: 0
  Inflamm: 2
  Mitotic Act.: 1.5
  Total Score: 6
[6]; distal colon
  Crypt Height: 2
  Epithelia Hyperplasia: 1.5
  Epithelial Injury: 1
  Fibrosis: 1
  Globlet cell: 1.5
  Inflamm: 1.5
  Mitotic Act.: 1
  Total Score: 9.5
[6]; proximal colon
  Crypt Height: 3
  Epithelia Hyperplasia: 3
  Epithelial Injury: 2
  Fibrosis: 0
  Globlet cell: 0
  Inflamm: 1.5
  Mitotic Act.: 1.5
  Total Score: 11

## COC(=O)c1cc(N)ccc1O[C@@H]1OC(CO)[C@@H](O[C@@H]2OC(CO[C@H]3OC[C@@H](O)C(O)C3O)[C@@H](O[C@@H]3OC(CO[C@H]4OC[C@@H](O)C(O)C4O)[C@@H](O[C@@H]4OC(CO[C@H]5OC[C@@H](O)C(O)C5O)[C@@H](O)C(O)C4O)C(O)C3O)C(O)C2O)C(O)C1O (stereo partly drawn) [XXXG-5ASAME, XXXG-β-O-mesalazineME]
[4]
  hydrolysis of the prodrug (release of the active drug): demonstrated
